Laboratory results: US12382954B2, “Pinocembrin dihydrochalcone and compositions thereof and their use as pesticides” (METABOLIC INSIGHTS LTD., priority 2019, dated 2025)

What was measured:
Spodoptera litoralis = assay: In-vitro screening matrix, Spodoptera litoralis; details: 50 ppm
Fusarium oxysporum [1] = assay: In planta validation, cucumber seedlings infected with Fusarium oxysporum; assay type: in vivo; details: 3 weeks after infection, 3 independent experiments
Rhizoctonia solani = assay type: cell-based; details: 50 ppm
Xanthomonas campestris = assay type: cell-based; details: 50 ppm
Sclerotinia sclerotiorum = assay type: cell-based; details: 50 ppm
Pythium aphanidermatum [2] = assay type: cell-based; details: 50 ppm
[3] = tested on: Pseudoperonospora cubensis; assay type: cell-based; details: 50 ppm
Botrytis cinerea = assay type: cell-based; details: 50 ppm
Puccinia triticina = assay type: cell-based; details: 50 ppm
Puccinia sorghi = assay type: cell-based; details: 50 ppm
Pseudomonas syringae = assay type: cell-based; details: 50 ppm
Phytophthora infestans [4] = assay type: cell-based; details: 50 ppm, tomato leaf discs, % of maximal value (grade x repeats/12)
[5] = tested on: Pectobacterium carotovorum; assay type: cell-based; details: 50 ppm
Phytophthora infestans [6] = assay type: in vivo; details: tomato detached leaf experiment, 500-1000 ppm, spray on leaves, 6 days after infection
Pythium aphanidermatum [7] = assay: In planta validation, cucumber seedlings infected with Pythium aphanidermatum (soil drench); assay type: in vivo; details: 4 days after infection, 150 ppm-500 ppm, 2 independent experiments
Mizus Persicae = assay: In-vitro screening matrix, Mizus Persicae; details: 50 ppm
Fusarium oxysporum [8] = assay type: cell-based; details: 50 ppm

Structure (SMILES): O=C(CCc1ccccc1)c1c(O)cc(O)cc1O [Pinocembrin dihydrochalcone, 3-phenyl-1-(2,4,6-trihydroxyphenyl)propan-1-one]
- Relative Activity value (%) (Spodoptera litoralis): 0%
- range of efficacy in preventing and controlling the Fusarium diseases (Fusarium oxysporum [1]; 100 ppm and 200 ppm): 66-100%
- range of efficacy in preventing and controlling the Fusarium diseases (Fusarium oxysporum [1]; 300 ppm): 88-100%
- Relative Activity value (%) (Rhizoctonia solani): 6%
- Relative Activity value (%) (Xanthomonas campestris): 50%
- Relative Activity value (%) (Sclerotinia sclerotiorum): 6%
- Relative Activity value (%) (Pythium aphanidermatum [2]): 100%
- Relative Activity value (%) [3]: 50%
- Relative Activity value (%) (Botrytis cinerea): 0%
- Relative Activity value (%) (Puccinia triticina): 19%
- Relative Activity value (%) (Puccinia sorghi): 0%
- Relative Activity value (%) (Pseudomonas syringae): 6%
- Relative Activity value (%) (Phytophthora infestans [4]): 100%
- Relative Activity value (%) [5]: 12%
- control of Phytophthora infestans (Phytophthora infestans [6]): up to 100%
- range of efficacy in preventing and controlling the Pythium disease (Pythium aphanidermatum [7]): up to 100%
- Relative Activity value (%) (Mizus Persicae): 0%
- Relative Activity value (%) (Fusarium oxysporum [8]): 9%
